Converted amounts (≈) assume the structure as drawn. “Also recorded” adds a separate entry of the source. Counter-ions that a name gives are not always drawn. Like-named read-outs stand apart in the source and are kept apart here.
Experiments:
Assay type in all cases: physicochemical
[1] = Water solubility of free form solid states at room temperature; conditions: for XRPD Pattern (solubility measured on); form in water: suspended in water, XRPD after 1 day, PLM after 5 days; for form after suspension in water (microscopic images): five days, room temperature
Method: Example 4. Water Solubility of Free Form Solid States at Room Temperature
The samples were shaken at 25° C., 200 rpm. XRPD (taken after the crystalline forms were mixed with water, and after 1 day suspended in water) and PLM (after 5 days) were recorded. […] Table 13 summarizes the water solubility of crystalline forms C and F.

[2] = Dynamic Vapor Sorption analysis (DVS), hygroscopicity; conditions: for Hygroscopicity by DVS: 25° C./0-90% RH change; for form change by XRPD after DVS: after 0-90% RH; for Hygroscopicity: weight increase at 80% RH, 25° C.; for moisture uptake: 0-90% RH change by DVS
Method: Dynamic Vapor Sorption Analysis (DVS)
• Instrument: DVS Intrinsic, Surface Measurement Systems • Parameters: 25° C., 0-90-0% RH for 2 cycles

[3] = Form stability of crystalline form F in 0.5% methylcellulose (400 cps)/0.02% sodium lauryl sulfate
Method: The samples were evaluated at designated time points and PLM images were recorded up to 7 days.

[4] = Storage stability of the crystalline forms (25° C./60% RH, 40° C./75% RH); conditions: for XRPD of the samples after exposure vs t=0: 25° C./60% RH and 40° C./75% RH, closed and open vial, 1, 2 and 4 weeks; for appearance after exposure / solid-form stability (XRPD): one-week exposure to 75% RH at 40° C.
Method: Example 8. Storage Stability of the Crystalline Forms
The forms were evaluated with a closed vial and an open vial.
Crystalline Hydrogen Sulfate Form B. […] Approximately 30 mg of crystalline hydrogen sulfate form B was weighed into a 4 mL vial and covered with a KIMWIPE. […]
Crystalline Sulfate Form A. […] Approximately 30 mg of crystalline sulfate form A was weighed into a 4 mL vial and covered with a KIMWIPE. […]

[5] = Form stability of crystalline hydrogen sulfate forms A and B in buffered 0.5% methylcellulose/0.02% sodium lauryl sulfate
Method: Example 7. Form Stability of Crystalline Hydrogen Sulfate Forms A and B in Buffered 0.5% Methylcellulose (v/v) (400 cps)/0.02% Sodium Lauryl Sulfate (v/v)
Crystalline hydrogen sulfate form A was used for form stability studies in 0.5% methylcellulose (v/v) (400 cps)/0.02% sodium lauryl sulfate (v/v) with citrate buffer (pH 4.5) with a concentration of 0.1 mg/mL, 0.2 mg/mL, 0.5 mg/mL and 1 mg/mL with and without stirring. HPLC purity was obtained for the solutions at 3 and 7 days.
An additional sample of crystalline hydrogen sulfate form A in the same buffered formulation was prepared with a concentration of 1 mg/ml and stirred at 500 rpm at room temperature. The sample was monitored every hour for form assessment. The solution was nearly clear at the first 3 hours.

[6] = as above; conditions: 10 mg in 10 mL MC/SLS with (pH 4.5) and without sodium citrate buffer, 500 rpm, room temperature, overnight
[7] = Dynamic Vapor Sorption analysis (DVS), hygroscopicity; conditions: 2-95% RH
[8] = 25° C./60% RH, t = 4 weeks, open vial
[9] = 25° C./60% RH, t = 7 d, open vial
[10] = 25° C./60% RH, t = 14 d, open vial
[11] = 40° C./75% RH, t = 4 weeks, closed vial
[12] = 40° C./75% RH, t = 4 weeks, open vial
[13] = 40° C./75% RH, t = 7 d, open vial
[14] = 40° C./75% RH, t = 14 d, open vial

C[C@@H]1COCCN1c1cc([C@]2(O)C[C@H]3CC[C@@H](C2)O3)c2cnn(-c3cc[nH]n3)c2n1 [Crystalline form B]
XRPD Pattern (solubility measured on); form in water ([1]; 25° C.): converted to crystalline form C
solubility ([1]; water, 25 °C, water, thermodynamic from solid, water, 25° C., label = starting material, measured on the form named in the XRPD Pattern column, read-out: Solubility): 50 µg/mL (≈ 122 µM)
form after suspension in water (microscopic images) ([1]; water): converted to crystalline form C
Hygroscopicity by DVS [2]: slightly hygroscopic
form change by XRPD after DVS [2]: did not change
Hygroscopicity [2]: Slightly hygroscopic (e.g., ≥0.2% and <2% (Slightly hygroscopic (e.g., ≥0.2% and <2% weight increase at 80% RH, 25° C.))

C[C@@H]1COCCN1c1cc([C@]2(O)C[C@H]3CC[C@@H](C2)O3)c2cnn(-c3cc[nH]n3)c2n1 [Crystalline form C]
solubility ([1]; water, 25 °C, water, thermodynamic from solid, water, 25° C., read-out: water solubility): ~50 µg/mL (≈ 122 µM)
Hygroscopicity by DVS [2]: slightly hygroscopic
form change by XRPD after DVS [2]: XRPD pattern changed after DVS compared to the starting material and matched with crystalline form J
Hygroscopicity [2]: Slightly hygroscopic (e.g., ≥0.2% and <2% weight (Slightly hygroscopic (e.g., ≥0.2% and <2% weight increase at 80% RH, 25° C.))

C[C@@H]1COCCN1c1cc([C@]2(O)C[C@H]3CC[C@@H](C2)O3)c2cnn(-c3cc[nH]n3)c2n1 [Crystalline form F]
XRPD Pattern (solubility measured on); form in water ([1]; 25° C.): remained unchanged; also recorded: Crystalline form F
water solubility ([1]; water, 25° C.): about 0.046 mg/mL
solubility ([1]; water, 25° C., label = starting material, measured on the form named in the XRPD Pattern column): 46 µg/mL (≈ 112 µM)
form after suspension in water (microscopic images) ([1]; water): unchanged
aqueous solubility (qualitative) [3]: very low
form change ([3]; 0.5% methylcellulose (400 cps)/0.02% sodium lauryl sulfate, room temperature, 7 days, PLM and XRPD): No form change
Hygroscopicity by DVS [2]: non hygroscopic
form change by XRPD after DVS [2]: no form change
Hygroscopicity [2]: Non hygroscopic (e.g., <0.2% weight increase at (Non hygroscopic (e.g., <0.2% weight increase at 80% RH, 25° C.))
XRPD of the samples after exposure vs t=0 [4]: matched with the starting materials
DSC [4, 8]: No change
HPLC [4, 8]: 99.94%
TG weight loss by 170° C. [4, 8]: 4.2 wt % loss
XRPD [4, 8]: No change
DSC [4, 9]: No change
HPLC [4, 9]: 99.925%
TG weight loss by 170° C. [4, 9]: 4.2 wt % loss
XRPD [4, 9]: No change
DSC [4, 10]: No change
HPLC [4, 10]: 100%
TG weight loss by 170° C. [4, 10]: 4.2 wt % loss
XRPD [4, 10]: No change
DSC [4, 11]: No change
HPLC [4, 11]: 99.94%
TG weight loss by 170° C. [4, 11]: 4.2 wt % loss
XRPD [4, 11]: No change
DSC [4, 12]: No change
HPLC [4, 12]: 99.94%
TG weight loss by 170° C. [4, 12]: 4.2 wt % loss
XRPD [4, 12]: No change
DSC [4, 13]: No change
HPLC [4, 13]: 99.922%
TG weight loss by 170° C. [4, 13]: 4.2 wt % loss
XRPD [4, 13]: No change
DSC [4, 14]: No change
HPLC [4, 14]: 100%
TG weight loss by 170° C. [4, 14]: 4.2 wt % loss
XRPD [4, 14]: No change
HPLC ([4]; t = 0): 99.903%
TG weight loss by 170° C. ([4]; t = 0): 4.7 wt % loss by

C[C@@H]1COCCN1c1cc([C@]2(O)C[C@H]3CC[C@@H](C2)O3)c2cnn(-c3cc[nH]n3)c2n1 [Crystalline hydrogen sulfate form A]
moisture uptake [2]: 1.42%
Hygroscopicity by DVS [2]: slightly hygroscopic
form change by XRPD after DVS [2]: No form change
Hygroscopicity [2]: Slightly hygroscopic (e.g., ≥0.2% and <2% weight (Slightly hygroscopic (e.g., ≥0.2% and <2% weight increase at 80% RH, 25° C.))
HPLC purity of solution ([5]; 0.1 mg/mL, stir, Day 3, MC/SLS with 50 mM citrate buffer (pH 4.5)): 99.82%
HPLC purity of solution ([5]; 0.1 mg/mL, stir, Day 7, MC/SLS with 50 mM citrate buffer (pH 4.5)): 99.93%
HPLC purity of solution ([5]; 0.1 mg/mL, w/o stir, Day 3, MC/SLS with 50 mM citrate buffer (pH 4.5)): 99.82%
HPLC purity of solution ([5]; 0.2 mg/mL, stir, Day 3, MC/SLS with 50 mM citrate buffer (pH 4.5)): 99.89%
HPLC purity of solution ([5]; 0.2 mg/mL, stir, Day 7, MC/SLS with 50 mM citrate buffer (pH 4.5)): 99.86%
HPLC purity of solution ([5]; 0.2 mg/mL, w/o stir, Day 3, MC/SLS with 50 mM citrate buffer (pH 4.5)): 99.89%
HPLC purity of solution ([5]; 0.5 mg/mL, stir, Day 3, MC/SLS with 50 mM citrate buffer (pH 4.5)): 99.91%
HPLC purity of solution ([5]; 0.5 mg/mL, stir, Day 7, MC/SLS with 50 mM citrate buffer (pH 4.5)): 99.87%
HPLC purity of solution ([5]; 0.5 mg/mL, w/o stir, Day 3, MC/SLS with 50 mM citrate buffer (pH 4.5)): 99.91%
HPLC purity of solution ([5]; 1 mg/mL, stir, Day 3, MC/SLS with 50 mM citrate buffer (pH 4.5)): 99.93%
HPLC purity of solution ([5]; 1 mg/mL, stir, Day 7, MC/SLS with 50 mM citrate buffer (pH 4.5)): 99.94%
HPLC purity of solution ([5]; 1 mg/mL, w/o stir, Day 3, MC/SLS with 50 mM citrate buffer (pH 4.5)): 99.89%
form assessment (precipitate, XRPD) ([5]; 1 mg/ml in buffered MC/SLS, stirred at 500 rpm, room temperature, monitored every hour): After 4 hours, crystalline form C was observed; also recorded: Precipitation of the free form, crystalline form C was observed after 3 hours
purity of the solutions (HPLC) ([5]; 0.1-1 mg/mL, with and without stirring, 3 and 7 days, citrate buffer pH 4.5): 99.8-99.9%
XRPD of the samples after exposure vs t=0 [4]: matched with the starting materials
HPLC ([4]; 25° C./60% RH, t = 4 weeks, closed vial): 99.92%
HPLC [4, 8]: 99.91%
HPLC ([4]; 25° C./60% RH, t = 7 d, closed vial): 99.936%
HPLC [4, 9]: 99.937%
HPLC ([4]; 25° C./60% RH, t = 14 d, closed vial): 100%
HPLC [4, 10]: 99.944%
HPLC [4, 11]: 99.92%
HPLC [4, 12]: 99.91%
HPLC ([4]; 40° C./75% RH, t = 7 d, closed vial): 99.938%
HPLC [4, 13]: 99.938%
HPLC ([4]; 40° C./75% RH, t = 14 d, closed vial): 100%
HPLC [4, 14]: 100%
HPLC ([4]; t = 0, baseline before storage): 99.902%

C[C@@H]1COCCN1c1cc([C@]2(O)C[C@H]3CC[C@@H](C2)O3)c2cnn(-c3cc[nH]n3)c2n1 [Crystalline hydrogen sulfate form B]
resulting solid form (XRPD) [6]: convert to crystalline form C; also recorded: The resulting solids were determined to be the free form, crystalline form C as confirmed by XRPD (FIG. 38)
moisture uptake [2]: 15.75%
Hygroscopicity by DVS [2]: hygroscopic
Hygroscopicity [2]: Hygroscopic (e.g., ≥2% and <15% weight increase (Hygroscopic (e.g., ≥2% and <15% weight increase at 80% RH, 25° C.))
appearance after exposure [4]: remained a flowable, white powder
solid-form stability (XRPD) [4]: no significant changes

C[C@@H]1COCCN1c1cc([C@]2(O)C[C@H]3CC[C@@H](C2)O3)c2cnn(-c3cc[nH]n3)c2n1 [Crystalline sulfate form A]
Hygroscopicity [7]: Hygroscopic
weight increase [7]: 2.8%
appearance after exposure [4]: remained a flowable, white powder
solid-form stability (XRPD) [4]: changed to a mixture of crystalline sulfate form A+another crystalline form of a sulfate salt

Reference: patent publication US20240294521A1, “CRYSTALLINE FORMS, COMPOSITIONS CONTAINING SAME, AND METHODS OF THEIR USE” (Repare Therapeutics Inc., priority 2021, published 2024)
